This experiment concerns H. pylori ATCC 43504. The experiment is described as follows: Short time kill kinetics in shake culture at different pH. In kind it is cell-based, Helicobacter pylori.

The compound `O=c1cc(-c2ccccc2)oc2cc(OCCCCCCN3CCCCC3)cc(O)c12` [CPP-1, 5-Hydroxy-2-phenyl-7-(6-piperidin-1-yl-hexyloxy)-chromen-4-one] returned a decrease of growth (50 mg/mL (so in the source), pH 4.0, 5.0 and 6.0, short exposure) of 3 log. Moreover, the survival of bacteria result (50 mg/mL (so in the source), pH 7.2) was “the bacteria survived”. The “rate of killing as function of pH” value (100 and 150 mg/mL (so in the source)) was “the rate of killing was found to increase as the pH of the media raised”.
